Source: PubChem BioAssay (NCI)
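Dose response: 5 concentrations. Exposure: 48 h. Format: 96-well plates. Endpoint: linear interpolation; highest concentration if not reached. TGI: concentration producing complete growth inhibition.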

Tests used:
Test in all cases: DTP human tumour cell line panel, 48 h
HCT-15 colon = test system: HCT-15 colon
MOLT-4 leukemia = test system: MOLT-4 leukemia
HCC-2998 colon = test system: HCC-2998 colon
HL-60(TB) leukemia = test system: HL-60(TB) leukemia
A498 renal = test system: A498 renal
SW-620 colon = test system: SW-620 colon
A549 NSCLC = test system: A549 NSCLC
HOP-62 NSCLC = test system: HOP-62 NSCLC
HT29 colon = test system: HT29 colon
UACC-62 melanoma = test system: UACC-62 melanoma
MDA-MB-435 = test system: MDA-MB-435
DU-145 prostate = test system: DU-145 prostate
MDA-MB-231 breast = test system: MDA-MB-231 breast
RPMI-8226 leukemia = test system: RPMI-8226 leukemia
NCI/ADR-RES ovarian = test system: NCI/ADR-RES ovarian
BT-549 breast = test system: BT-549 breast

`[N-]=[N+]=NC1(Cc2ccccc2)C(=O)Nc2ccccc2C1=O` (centres undefined) was tested, and the TGI (HCT-15 colon) was > 100 µM, the TGI (MOLT-4 leukemia) was > 100 µM and the TGI (HCC-2998 colon) was > 100 µM. For the same compound, the TGI (HL-60(TB) leukemia) was > 100 µM, the TGI (A498 renal) was > 100 µM and the TGI (SW-620 colon) was > 100 µM. For the same compound, the TGI (A549 NSCLC) was > 100 µM, the TGI (HOP-62 NSCLC) was > 100 µM and the TGI (HT29 colon) was > 100 µM. For the same compound, the TGI (UACC-62 melanoma) was > 100 µM.
In the case of `CSc1ccccc1NC1=NCCO1`, the TGI (MDA-MB-435) is reported as > 100 µM, the TGI (DU-145 prostate) is reported as > 100 µM and the TGI (HCT-15 colon) is reported as > 100 µM. For the same compound, the TGI (MDA-MB-231 breast) was > 100 µM, the TGI (MOLT-4 leukemia) was > 100 µM and the TGI (HCC-2998 colon) was > 100 µM. For the same compound, the TGI (HL-60(TB) leukemia) was > 100 µM, the TGI (A498 renal) was > 100 µM and the TGI (SW-620 colon) was > 100 µM. The TGI (RPMI-8226 leukemia) was > 100 µM, the TGI (NCI/ADR-RES ovarian) was > 100 µM and the TGI (A549 NSCLC) was > 100 µM. The TGI (HOP-62 NSCLC) was > 100 µM, the TGI (HT29 colon) was > 100 µM and the TGI (UACC-62 melanoma) was > 100 µM.
For `CCN(CC)CCC(=O)c1ccc(Cl)c(Cl)c1`, the TGI (MDA-MB-435) was 30.8 µM, the TGI (DU-145 prostate) was > 100 µM and the TGI (HCT-15 colon) was > 100 µM. The TGI (MOLT-4 leukemia) was 82.8 µM, the TGI (HCC-2998 colon) was > 100 µM and the TGI (HL-60(TB) leukemia) was > 100 µM. For the same compound, the TGI (A498 renal) was 76 µM, the TGI (SW-620 colon) was 41.3 µM and the TGI (RPMI-8226 leukemia) was > 100 µM. The TGI (NCI/ADR-RES ovarian) was > 100 µM, the TGI (A549 NSCLC) was > 100 µM and the TGI (HOP-62 NSCLC) was > 100 µM. The TGI (HT29 colon) was > 100 µM, the TGI (UACC-62 melanoma) was 31 µM and the TGI (BT-549 breast) was 36.3 µM.
`C=C1C(=O)O[C@H]2C(=O)[C@H](C)CCC/C(C)=C/CC[C@@]3(C)O[C@@H]3C[C@@H]12` gave a TGI (MDA-MB-435) of 5.82 µM, a TGI (DU-145 prostate) of 11.1 µM and a TGI (HCT-15 colon) of 3.12 µM. It also gave a TGI (MDA-MB-231 breast) of 23.3 µM, a TGI (MOLT-4 leukemia) of 4.72 µM and a TGI (HL-60(TB) leukemia) of 6.8 µM. It also gave a TGI (A498 renal) of 32.8 µM, a TGI (SW-620 colon) of 3.54 µM and a TGI (RPMI-8226 leukemia) of 4.79 µM. The TGI (NCI/ADR-RES ovarian) was 40.5 µM, the TGI (A549 NSCLC) was 21.4 µM and the TGI (HOP-62 NSCLC) was 24.3 µM. The TGI (HT29 colon) was 10.6 µM and the TGI (UACC-62 melanoma) was 16.8 µM.
With `C#CC(O)/C=C/C(O)CCCC(O)CC#CC(O)C#CCCCCC(O)/C=C/CCCCCC(=O)CCCCCCCCCCCCCC(O)C(O)C#CC(=O)O` (centres undefined) the TGI (MDA-MB-435) was > 25 µM, the TGI (DU-145 prostate) was > 25 µM and the TGI (HCT-15 colon) was > 25 µM. For the same compound, the TGI (MDA-MB-231 breast) was > 25 µM, the TGI (MOLT-4 leukemia) was > 25 µM and the TGI (HCC-2998 colon) was > 25 µM. For the same compound, the TGI (HL-60(TB) leukemia) was > 25 µM, the TGI (A498 renal) was > 25 µM and the TGI (RPMI-8226 leukemia) was > 25 µM. The TGI (NCI/ADR-RES ovarian) was > 25 µM, the TGI (A549 NSCLC) was > 25 µM and the TGI (HOP-62 NSCLC) was > 25 µM. For the same compound, the TGI (HT29 colon) was > 25 µM and the TGI (UACC-62 melanoma) was > 25 µM.
`COc1ccc(NC(=O)CSc2nc(C)nc3c2sc(=S)n3-c2ccccc2)cc1` was tested, and the TGI (MDA-MB-435) was > 10 µM, the TGI (DU-145 prostate) was > 10 µM and the TGI (HCT-15 colon) was > 10 µM. The TGI (MDA-MB-231 breast) was > 10 µM, the TGI (MOLT-4 leukemia) was > 10 µM and the TGI (HCC-2998 colon) was > 10 µM. The TGI (HL-60(TB) leukemia) was > 10 µM, the TGI (A498 renal) was > 10 µM and the TGI (SW-620 colon) was > 10 µM. For the same compound, the TGI (RPMI-8226 leukemia) was > 10 µM, the TGI (NCI/ADR-RES ovarian) was > 10 µM and the TGI (A549 NSCLC) was > 10 µM. The TGI (HOP-62 NSCLC) was > 10 µM, the TGI (HT29 colon) was > 10 µM and the TGI (UACC-62 melanoma) was > 10 µM.
For `O=C1NC(=S)NC(=O)C1=Cc1ccc([N+](=O)[O-])o1`, the TGI (HCT-15 colon) was 32.6 µM, the TGI (MOLT-4 leukemia) was 43.4 µM and the TGI (HCC-2998 colon) was > 100 µM. The TGI (HL-60(TB) leukemia) was 87.6 µM, the TGI (A498 renal) was > 100 µM and the TGI (SW-620 colon) was 41.6 µM. The TGI (RPMI-8226 leukemia) was 54 µM, the TGI (A549 NSCLC) was > 100 µM and the TGI (HOP-62 NSCLC) was > 100 µM. It also gave a TGI (HT29 colon) of 48.7 µM and a TGI (UACC-62 melanoma) of 39.1 µM.
With `CCCN(CCCC(NC(C)=O)C(=O)NCc1ccccc1)C(=O)N(C)N=O` (centres undefined) the TGI (HCT-15 colon) was > 100 µM, the TGI (MOLT-4 leukemia) was > 100 µM and the TGI (HCC-2998 colon) was > 100 µM. The TGI (A498 renal) was > 100 µM, the TGI (SW-620 colon) was > 100 µM and the TGI (RPMI-8226 leukemia) was > 100 µM. The TGI (A549 NSCLC) was > 100 µM, the TGI (HOP-62 NSCLC) was > 100 µM and the TGI (HT29 colon) was > 100 µM. For the same compound, the TGI (UACC-62 melanoma) was > 100 µM.
